# Source: patent US8889411B2, “Modulation of stem and progenitor cell differentiation, assays, and uses thereof” (Anthrogenesis Corporation, priority 2002, dated 2014)
# Experiments:
# [1] = tested on: Bone marrow and cord blood CD34+ progenitor cells; test: Differentiation of CD34+ progenitor cells into dendritic cells, cell surface phenotype by flow cytometry; format: cell-based, human; set-up: key to Cell Population CD15+ / Cell Population CD34+ CD38− / Cell Population CD34− CD38+ / Cell Population CD1a+ CD14− / Cell Population CD1a− CD14+: ↑: up arrow indicates an increase in the cell population; ↓: down arrow indicates a decrease; conditions: day 6; SCF, Flt-3L, GM-CSF and TNF-α; versus DMSO-treated control
# Experimental: Bone marrow and cord blood CD34^+ progenitor cells were obtained from Clonetics and cultured in Iscove's MDM with BIT 95000 (StemCell Technologies) in the presence of SCF, Flt-3L, GM-CSF and TNF-α for 6 days, and then in the presence of GM-CSF and TNF-α for 6 additional days.
# Analysis of cell surface phenotype: Cells were processed for double staining (30 min at 4° C.) at day 6 and day 12 using FITC and PE conjugated mAbs. Antibodies used were from BD Pharmingen: CD34 (PE), CD38 (FITC), CD33 (FITC), CD1a (FITC), CD86 (PE), CD14 (PE), CD83 (PE), CD54 (PE), CD11b (PE), CD11c (PE), HLA-DR (PE), CD15 (FITC), and CD133 (PE) from Miltenyi. Fluorescence analysis was performed on a FACScan flow cytometer after acquisition of 10,000 events (Coulter). Results presented are representative of four independent experiments.
# The methodology described above, i.e., the examination of the effect of IMiDs such as ACTIMID™ on the differentiation on early progenitor cells, such as CD34^+ cells, can be applied to any compound of interest, the effect of which on differentiation is desired to be known. As an example of the extension of this assay method to other compounds, we compared the effect of retinoic acid (ATRA) and aspirin to that of ACTIMID™ on the differentiation of CD34^+ cells toward the DC lineage versus the control (DMSO-treated) cells. Retinoic acid was studied because of its known effect on cellular proliferation and differentiation, its therapeutic use in some cancer, and its known teratogenic effect. Conversely, we studied the effect of aspirin because it is a commonly-used anti-inflammatory drug with no immunomodulatory properties. The results at day 6 of CD34^+ progenitors cells cultured in the presence of SCF, Flt-3L, GM-CSF and TNF-α, with or without compound for a period of 6 days, are presented below in Table 2 (up arrow indicates an increase in the cell population; down arrow indicates a decrease).
# [2] = tested on: Murine Sca+Lin− hematopoietic progenitor cells; test: Generation of murine dendritic cells from bone marrow Sca+Lin− progenitors, cell surface phenotype; format: cell-based, mouse (C57BL/6)
# Excerpt: Mouse bone marrow from inbred C57BL/6 mice was obtained from Clonetics. Hematopoietic Sca+Lin− progenitors were enriched using SpinSep murine progenitor enrichment cocktail (StemCell Technologies) and cultured in Iscove's MDM with BIT 95000 (StemCell Technologies) in the presence of murine growth factors SCF, Flt3L, GM-CSF and M-CSF for 9 days, to promote expansion of Sca+ cells and a DC precursor phenotype and then in the presence of GM-CSF and TNF-α for 3 additional days to drive the cells to an immature DC phenotype. Enriched Sca+Lin− cells were cultured in the presence of DMSO (0.1%), ACTIMID™ at 10 μM or all-trans retinoic acid (ATRA) (ICN Biomedicals) at 10 μM from day 0. Compounds were added to cells at day 0 and day 9.
# Analysis of Murine cell surface phenotype: Murine cells were processed for double staining (14 min at RT) at day 9 and day 12; using FITC and PE conjugated mAbs. Antibodies used were from BD Pharmingen: Sea (PE), CD11b (FITC), Gr-1 (FITC), CD86 (PE), CD14 (PE), CD80 (PE), I-A^b (PE), CD40 (PE) and CD32.1/16.1 (FITC) from Miltenyi. Fluorescence analysis was performed on a FACScan flow cytometer (Coulter) after acquisition of 10,000 events.
# [3] = tested on: Human Cord Blood CD34+ Cells; test: FACS analysis of proliferation and differentiation of cord blood CD34+ cells cultured with IL3, G-CSF and Kit-ligand; format: cell-based; conditions: for CD11b+ Cell Population / CD34+CD38+ Cell Population / CD34+CD38− Cell Population: 7 days
# Experimental: CB CD34+ cells were initiated at 4×10^4 cells/ml in a 24-well plate in 20% FCS IMDM (fetal calf serum/Iscove's Modified Dulbecco's Medium) supplemented with cytokines (1 L3, GCSF and Kit-ligand) (R&D Systems, Inc.). Thalidomide (Thal), ACTIMID™ or REVIMID™ were included in the culture at three different concentrations: 5 μg/ml, 1 μg/ml and 0.3 μg/ml. The same volumes of DMSO were used as controls. A negative control without, any compound was also used (indicated by “none” in FIGS. 3-7). Cells were cultured at 37° C. and 5% CO2 in a humidified incubator for 7 days. Cells were then harvested from each well.
# The total cell number from each well was determined by counting in a CELL-DYN® 1700 (Abbott Diagnostics) and the expression of CXCR4, CD45, CD34, CD38, CD 1 lb and Gly-A expression was analyzed by FACS (fluorescence-activated cell sorting) staining (FIGS. 3-7).
# CB cells from two different donors (CB2276 and CB2417) were cultured, assayed and analyzed separately (Table 1).
# [4] = tested on: Purified human cord blood CD34+ cells; test: Monocyte production: CD34/CD14 staining of cord blood CD34+ cells cultured 14 days with cytokines; format: cell-based; conditions: 14 days
# Experimental: Purified human cord blood CD34+ cells (greater than 90% CD34+) were cultured in 20% FCS IMDM medium supplemented with cytokines (IL3, IL6, G-CSF, KL and Epo) at 4×10^4 cells/ml for 14 days at 37° C. in a humidified 5% CO2 incubator. The experimental groups consisted of a group in which (i) no DMSO or chemical compounds were added (“None”), (ii) DMSO only, (iii) Thalidomide dissolved in DMSO, (iv) ACTIMID™ dissolved in DMSO, and (v) REVIMID™ dissolved in DMSO. Aliquots of cells were harvested and stained with CD34-PE conjugated monoclonal antibody and CD14-FITC conjugated monoclonal antibody.
smiles,measurement,setting,value
"CC1=C(/C=C/C(C)=C/C=C/C(C)=C/C(=O)O)C(C)(C)CCC1 [All-trans RA, all-trans retinoic acid, reference compound]",Cell Population CD1a+ CD14−,[1],↓
same,Cell Population CD1a− CD14+,[1],↓
same,Cell Population CD15+,[1],↑
same,Cell Population CD34+ CD38−,[1],↓
same,Cell Population CD34− CD38+,[1],↑
same,"CD80, I-A^b and Sca+ expression by day 9","[2]; 10 μM from day 0, data not shown",marked downregulation
same,expression of CD40 and CD80,"[2]; 10 μM, not shown",marked downregulation
"O=C1CCC(N2C(=O)c3ccccc3C2=O)C(=O)N1 (stereo not drawn) [Thalidomide, reference compound]",expression of CXCR4,[3]; FACS analysis of surface proteins,not
same,yield of cells,"[3]; IL-3, KL and G-CSF, compared with the DMSO control",slightly higher number of cells
same,effect on the proliferation of CD34+ cells,"[3]; IL-3, KL and G-CSF, compared with the negative control (none)",do not have a significant effect
same,CD11b+ Cell Population,"[3]; donor CB2276, 0.3 μg/ml",7.6%
same,CD34+CD38+ Cell Population,"[3]; donor CB2276, 0.3 μg/ml",15.1
same,CD34+CD38− Cell Population,"[3]; donor CB2276, 0.3 μg/ml",3.2
same,CD11b+ Cell Population,"[3]; donor CB2276, 1 μg/ml",6.2%
same,CD34+CD38+ Cell Population,"[3]; donor CB2276, 1 μg/ml",3.8
same,CD34+CD38− Cell Population,"[3]; donor CB2276, 1 μg/ml",1.0
same,CD11b+ Cell Population,"[3]; donor CB2276, 5 μg/ml",8.1%
same,CD34+CD38+ Cell Population,"[3]; donor CB2276, 5 μg/ml",6.5
same,CD34+CD38− Cell Population,"[3]; donor CB2276, 5 μg/ml",3.5
same,CD11b+ Cell Population,"[3]; donor CB2417, 0.3 μg/ml",7.8%
same,CD34+CD38+ Cell Population,"[3]; donor CB2417, 0.3 μg/ml",5.0
same,CD34+CD38− Cell Population,"[3]; donor CB2417, 0.3 μg/ml",0.8
same,CD11b+ Cell Population,"[3]; donor CB2417, 1 μg/ml",5.2%
same,CD34+CD38+ Cell Population,"[3]; donor CB2417, 1 μg/ml",3.8
same,CD34+CD38− Cell Population,"[3]; donor CB2417, 1 μg/ml",1.0
same,CD11b+ Cell Population,"[3]; donor CB2417, 5 μg/ml",6.5%
same,CD34+CD38+ Cell Population,"[3]; donor CB2417, 5 μg/ml",3.0
same,CD34+CD38− Cell Population,"[3]; donor CB2417, 5 μg/ml",1.1
same,CD38 status of the majority of CD34+ and CD34− cells,[3]; treated cell populations,mainly CD38+
same,percentage of CD34+ cells of the total cells,"[4]; IL3, IL6, G-CSF, KL and Epo, compound dissolved in DMSO",0.24%
same,production of monocytes (CD14+ cells),[4]; relative to DMSO-treated group,similar
"CC(=O)Oc1ccccc1C(=O)O [Aspirin, acetylsalicylic acid, reference compound]",Cell Population CD1a+ CD14−,[1],No change
same,Cell Population CD1a− CD14+,[1],No change
same,Cell Population CD15+,[1],No change
same,Cell Population CD34+ CD38−,[1],No change
same,Cell Population CD34− CD38+,[1],No change
